Test results from patent US20230348376A1 (TEIJIN PHARMA LIMITED, priority 2020, published 2023).
pEC50: −log10 of the molar value.

Target: T1, human VDR (Homo sapiens, UniProt P11473)
T1 sequence (P11473 1-427): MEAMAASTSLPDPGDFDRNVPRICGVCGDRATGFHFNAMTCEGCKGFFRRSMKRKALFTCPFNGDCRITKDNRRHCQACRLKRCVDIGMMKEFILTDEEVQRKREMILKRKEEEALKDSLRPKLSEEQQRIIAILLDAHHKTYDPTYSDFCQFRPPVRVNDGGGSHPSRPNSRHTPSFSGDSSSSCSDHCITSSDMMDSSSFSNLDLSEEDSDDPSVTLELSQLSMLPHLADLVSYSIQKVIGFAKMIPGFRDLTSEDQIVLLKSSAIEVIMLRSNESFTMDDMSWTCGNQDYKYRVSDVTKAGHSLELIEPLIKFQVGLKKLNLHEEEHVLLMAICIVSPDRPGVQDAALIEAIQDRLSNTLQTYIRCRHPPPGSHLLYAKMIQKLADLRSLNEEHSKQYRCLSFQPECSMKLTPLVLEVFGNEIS
T1 sequence (P19793 1-462 partner): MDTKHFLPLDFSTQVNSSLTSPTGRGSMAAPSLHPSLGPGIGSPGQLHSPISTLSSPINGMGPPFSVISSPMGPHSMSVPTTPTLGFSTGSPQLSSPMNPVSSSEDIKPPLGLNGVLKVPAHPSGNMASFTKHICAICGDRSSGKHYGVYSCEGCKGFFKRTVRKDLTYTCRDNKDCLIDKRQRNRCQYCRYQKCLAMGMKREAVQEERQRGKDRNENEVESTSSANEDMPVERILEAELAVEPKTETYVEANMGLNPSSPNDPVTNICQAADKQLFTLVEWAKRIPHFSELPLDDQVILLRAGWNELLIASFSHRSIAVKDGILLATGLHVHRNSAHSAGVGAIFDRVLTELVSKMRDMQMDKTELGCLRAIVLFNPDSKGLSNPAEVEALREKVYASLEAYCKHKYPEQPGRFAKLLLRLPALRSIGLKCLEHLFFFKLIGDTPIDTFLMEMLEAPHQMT
Experiment: Evaluation of VDR transcription activity in human osteoblasts (HOS cells), luciferase reporter
Settings: Activity (EC50, VDR transcription activity), HOS cells transfected with human VDR, human RXRα and DR3 luciferase reporter; 21 hours

Row | pEC50 | SMILES
1 | > 9.00 | C=C1[C@H](O)CC(=C/C=C2\CCC[C@]3(C)[C@@H]([C@H](C)CN4CCCC(O)(CC)C4)CC[C@@H]23)C[C@H]1O (single isomer, unassigned) [Compound C046a]
2 | > 9.00 | C=C1/C(=C\C=C2/CCC[C@]3(C)[C@@H]([C@H](C)CN4CCCC(O)(C(F)(F)F)C4)CC[C@@H]23)C[C@@H](O)[C@H](C)[C@@H]1O (single isomer, unassigned) [Compound C031a]
3 | 8.00 to 9.00 | C=C1/C(=C\C=C2/CCC[C@]3(C)[C@@H]([C@@H](C)CN4CCC(C(F)(F)F)CC4)CC[C@@H]23)C[C@@H](O)C[C@@H]1O [Compound C011, (1R,3S,Z)-5-(2-((1R,3aS,7aR,E)-7a-methyl-1-((R)-1-(4-(trifluoromethyl)piperidin-1-yl)propan-2-yl)octahydro-4H-inden-4-ylidene)ethylidene)-4-methylenecyclohexane-1,3-diol]
4 | 8.00 to 9.00 | C[C@@H](CN1CC[C@@H](C(C)(F)F)C1)[C@H]1CC[C@H]2/C(=C/C=C3CC(O)C[C@H](O)C3)CCC[C@]12C (stereo in doubt) [Compound B102, (1R,3S)-5-(2-((1R,3aS,7aR,E)-1-((R)-1-((R)-3-(1,1-difluoroethyl)pyrrolidin-1-yl)propan-2-yl)-7a-methyloctahydro-4H-inden-4-ylidene)ethylidene)cyclohexane-1,3-diol]
5 | 7.00 to 8.00 | C[C@H](CCN1CC[C@@H](C(F)F)C1)[C@H]1CC[C@H]2/C(=C/C=C3C[C@@H](O)C[C@H](O)C3)CCC[C@]12C [Compound B081, (1R,3R)-5-(2-((1R,3aS,7aR,E)-1-((R)-4-((R)-3-(difluoromethyl)pyrrolidin-1-yl)butan-2-yl)-7a-methyloctahydro-4H-inden-4-ylidene)ethylidene)cyclohexane-1,3-diol]
6 | 8.00 to 9.00 | C=C1[C@H](O)CC(=C/C=C2\CCC[C@]3(C)[C@@H]([C@@H](C)CN4CCC(O)(C(F)F)CC4)CC[C@@H]23)C[C@H]1O [Compound C026, (1R,3R)-5-(2-((1R,3aS,7aR,E)-1-((R)-1-(4-(difluoromethyl)-4-hydroxypiperidin-1-yl)propan-2-yl)-7a-methyloctahydro-4H-inden-4-ylidene)ethylidene)-2-methylenecyclohexane-1,3-diol]
7 | 6.00 to 7.00 | C=C1/C(=C\C=C2/CCC[C@]3(C)[C@@H]([C@@H](C)CN4CC[C@H](C(F)F)C4)CC[C@@H]23)C[C@@H](O)C[C@@H]1O [Compound B095, (1R,3S,Z)-5-(2-((1R,3aS,7aR,E)-1-((R)-1-((S)-3-(difluoromethyl)pyrrolidin-1-yl)propan-2-yl)-7a-methyloctahydro-4H-inden-4-ylidene)ethylidene)-4-methylenecyclohexane-1,3-diol]
8 | 8.00 to 9.00 | C=C1[C@H](O)CC(=C/C=C2\CCC[C@]3(C)[C@@H]([C@H](C)CCN4CCO[C@@H](C(F)F)C4)CC[C@@H]23)C[C@H]1O [Compound D036, (1R,3R)-5-(2-((1R,3aS,7aR,E)-1-((R)-4-((R)-2-(difluoromethyl)morpholino)butan-2-yl)-7a-methyloctahydro-4H-inden-4-ylidene)ethylidene)-2-methylenecyclohexane-1,3-diol]
9 | 7.00 to 8.00 | C=C1[C@H](O)CC(=C/C=C2\CCC[C@]3(C)[C@@H]([C@H](C)CCN4CC[C@@H](CC(F)F)C4)CC[C@@H]23)C[C@H]1O [Compound B092, (1R,3R)-5-(2-((1R,3aS,7aR,E)-1-((R)-4-((S)-3-(2,2-difluoroethyl)pyrrolidin-1-yl)butan-2-yl)-7a-methyloctahydro-4H-inden-4-ylidene)ethylidene)-2-methylenecyclohexane-1,3-diol]

Same assay, conditions: read-out: Activity (EC50, VDR transcription activity); HOS cells transfected with human VDR, human RXRα and DR3 luciferase reporter; 21 hours

Row | pEC50 | SMILES
10 | > 9.00 | C=C1/C(=C\C=C2/CCC[C@]3(C)[C@@H]([C@H](C)CN4CCC(O)(C(F)(F)F)C4)CC[C@@H]23)C[C@@H](O)C[C@@H]1O (single isomer, unassigned) [Compound B044b]
